Data published in article PMC12138161, “Structure–activity analysis of imino‐pyrimidinone‐fused pyrrolidines aids the development of dual plasmepsin V and plasmepsin X inhibitors” (The Febs Journal, 2025).
Several values for one entry are separate records, joined by “and”; a condition that tells them apart may be missing. Equal entries are not always repeated.

What was measured:
[1] = target: T1, recombinant Plasmodium vivax PMV (Plasmodium vivax, UniProt A5K302); assay: Plasmepsin V fluorogenic substrate cleavage assay; format: biochemical; settings: for IC50: recombinant P. vivax PMV, average of three independent experiments, read-out: PMV IC50 (SD)
T1 construct: PvPMV (residues R35–R476) was prepared similarly; gp67 signal peptide (N); TEV protease cleavage site + FLAG tag (C); made in house; host or cells: Sf21 insect cells
T1 sequence (A5K302 35-476): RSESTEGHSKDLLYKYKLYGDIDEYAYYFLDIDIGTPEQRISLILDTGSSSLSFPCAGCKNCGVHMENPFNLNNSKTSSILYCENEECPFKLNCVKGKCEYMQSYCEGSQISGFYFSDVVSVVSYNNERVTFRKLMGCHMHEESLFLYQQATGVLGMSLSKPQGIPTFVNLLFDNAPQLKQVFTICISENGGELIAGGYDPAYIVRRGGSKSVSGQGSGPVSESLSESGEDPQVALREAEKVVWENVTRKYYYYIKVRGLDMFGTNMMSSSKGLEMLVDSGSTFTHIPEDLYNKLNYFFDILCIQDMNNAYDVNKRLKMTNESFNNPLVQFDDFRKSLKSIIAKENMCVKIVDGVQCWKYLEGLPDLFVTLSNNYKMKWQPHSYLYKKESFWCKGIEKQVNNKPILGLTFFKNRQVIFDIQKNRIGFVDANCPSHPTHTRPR
Source text: To uncover nonpeptidomimetic drug‐like inhibitors of the aspartic protease PvPMV, we screened a library of 1298 compounds that were known to inhibit human aspartyl proteases. These compounds were selected by chemoinformatic structural diversity from a larger library of compounds that targeted human aspartyl proteases and has been used previously to identify hit compounds that inhibited P. falciparum growth. These hit compounds belonged to a single chemical class and were used to develop a lead compound WM382 that is a dual selective inhibitor of PMIX and PMX from P. falciparum and P. vivax. The screen utilized a FRET‐based assay with PvPMV and a fluorogenic EDANS‐DACBYL labeled peptide with the P. falciparum knob‐associated histidine‐rich protein (KAHRP) PEXEL motif amino acid sequence.
(§1) These fluorogenic assays follow protocols previously described. Compound potency was assessed with 10 point, threefold dilution series starting at 100 μM in duplicate per experiment and repeated in three independent experiments. Data were normalized to percent inhibition relative to 1% DMSO (high control) and either 1 μM WEHI‐600 for PMV and 1 μM WM382 for PMIX/PMX (low controls). IC50 values (relative inflection of dose–response curve) were calculated using a nonlinear regression four‐parameter fit analysis in DOTMATICS 5.3 (Dotmatics, Boston, MA, USA) and SPOTFIRE 7.11.1 (Goteborg, Sweden) software. The equation used was sigmoidal dose–response (variable slope), Y = bottom + (top − bottom)/(1 + 10 ((logIC50 − X) × Hill Slope)). Reported IC50 values were calculated based on the averages of three independent dataset. Assay robustness and data quality was assessed by Z′ > 0.5 (Z′ = 1 − (3 × (SD high + SD low)/(mean high − mean low))) and activity reproducibility of reference compound. WEHI‐600 (PMV) or WM382 (PMIX/PMX) were included as reference compounds in every experiment to monitor the assay performance. Any drift in activity greater than threefold from the average acceptable range and the experiment was rejected and repeated.

[2] = target: T2, Plasmodium falciparum PMIX (Plasmodium falciparum, UniProt Q8ILG2); assay: Plasmepsin IX fluorogenic substrate cleavage assay; format: biochemical; settings: P. falciparum PMIX; average of three independent experiments; read-out: PMIX IC50 (SD)
T2 sequence (Q8ILG2 1-627): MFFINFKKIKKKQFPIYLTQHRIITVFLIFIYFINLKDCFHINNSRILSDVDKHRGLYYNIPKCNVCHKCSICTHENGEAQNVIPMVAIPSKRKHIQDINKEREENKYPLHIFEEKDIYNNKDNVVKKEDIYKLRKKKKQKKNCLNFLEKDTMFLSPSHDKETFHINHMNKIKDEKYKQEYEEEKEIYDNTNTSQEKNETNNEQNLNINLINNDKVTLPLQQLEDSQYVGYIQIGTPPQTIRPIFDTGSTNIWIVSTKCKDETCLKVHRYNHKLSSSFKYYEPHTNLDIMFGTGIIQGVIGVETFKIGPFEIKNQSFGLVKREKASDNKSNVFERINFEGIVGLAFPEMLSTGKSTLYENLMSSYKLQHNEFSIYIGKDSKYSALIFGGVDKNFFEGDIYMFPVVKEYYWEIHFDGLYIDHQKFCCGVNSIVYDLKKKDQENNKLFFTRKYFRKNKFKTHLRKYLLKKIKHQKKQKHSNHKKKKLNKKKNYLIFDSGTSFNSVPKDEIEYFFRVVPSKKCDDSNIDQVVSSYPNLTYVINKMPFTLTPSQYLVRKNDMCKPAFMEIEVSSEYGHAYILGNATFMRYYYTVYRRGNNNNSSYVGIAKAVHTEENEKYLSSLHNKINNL
Description: as §1

[3] = target: P. falciparum PMX (Plasmodium falciparum, UniProt Q8IAS0); assay: Plasmepsin X fluorogenic substrate cleavage assay; format: biochemical; settings: for IC50: P. falciparum PMX, average of three independent experiments, read-out: PMX IC50 (SD)
P. falciparum PMX, sequence (Q8IAS0 222-573): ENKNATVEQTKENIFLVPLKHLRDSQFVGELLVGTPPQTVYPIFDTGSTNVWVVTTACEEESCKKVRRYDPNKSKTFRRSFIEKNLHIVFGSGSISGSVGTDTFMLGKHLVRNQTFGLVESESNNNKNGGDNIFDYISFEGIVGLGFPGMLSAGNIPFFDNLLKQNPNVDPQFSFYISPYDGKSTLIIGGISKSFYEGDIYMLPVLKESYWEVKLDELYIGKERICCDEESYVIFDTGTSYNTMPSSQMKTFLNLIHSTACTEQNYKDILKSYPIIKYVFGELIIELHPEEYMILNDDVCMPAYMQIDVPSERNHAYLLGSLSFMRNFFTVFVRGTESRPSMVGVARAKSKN
Description: as §1

[4] = system: P. falciparum 3D7 asexual parasites; assay: P. falciparum growth inhibition assay (LDH activity, 72 h); format: cell-based, Plasmodium falciparum; settings: for EC50: Plasmodium falciparum, 3D7 asexual parasites, 72 h exposure, LDH activity, three independent experiments, read-out: Pf 3D7 EC50 (SD)
Description: The ability of compounds to block growth of blood stage P. falciparum parasites was determined using a growth inhibition assay (GIA) as described. Compound potency was assessed with 10 point, threefold dilution series starting at 10 μM in duplicate per experiment and repeated in three independent experiments. Data were normalized to percent viability relative to 0.1% DMSO (high growth control) and 2.5 μM chloroquine (low growth control). EC50 values (relative inflection of dose–response curve) were calculated using a nonlinear regression four‐parameter fit analysis in DOTMATICS 5.3 and SPOTFIRE 7.11.1 software. The equation used was sigmoidal dose–response (variable slope), Y = bottom + (top − bottom)/(1 + 10 ((logEC50 − X) × Hill Slope)). Reported EC50 values were calculated on the average of three independent dataset. Assay robustness and data quality was assessed by Z′ > 0.5 (Z′ = 1 − (3 × (SD high + SD low)/(mean high − mean low))) and activity reproducibility of reference compound WM382, which was included in every experiment. Any drift in WM382 activity greater than threefold from the average acceptable range and the experiment was rejected and repeated.

[5] = system: PMIX; settings: cited from earlier work
[6] = system: PMX; settings: cited from earlier work
[7] = system: 3D7 strain of Plasmodium falciparum; settings: blood stage growth, read-out: Pf 3D7 EC50; cited from earlier work
[8] = system: PMV; settings: cited from earlier work

| SMILES | IC50 [1] | IC50 [2] | IC50 [3] | EC50 [4] | IC50 [5] | IC50 [6] | EC50 [7] | IC50 [8] | improvement of PMV inhibition ([1]; compared with WM36 (8)) | more potent against PMX ([3]; than the unsubstituted comparator analog 24) | inhibition of P. falciparum asexual parasite replication / antimalarial activity (in words) ([4]; blood stage) |
| --- | --- | --- | --- | --- | --- | --- | --- | --- | --- | --- | --- |
| CN1C(=N)NC2(c3cc(F)ccc3F)CN(c3ncccc3-c3ccc(Cl)c(F)c3)CC2C1=O (stereo not shown) [Compound 20] | 1010 nM | 1150 nM | 440 nM | > 10000 nM | – | – | – | – | – | – | – |
| CN1C(=N)NC2(c3cc(F)ccc3F)CN(c3ncccc3-c3ccc(Cl)cc3C(F)(F)F)CC2C1=O (stereo not shown) [Compound 18] | > 3700 nM | 1080 nM | 483 nM | > 10000 nM | – | – | – | – | – | – | – |
| CN1C(=N)NC2(c3cc(F)ccc3F)CN(c3n[nH]cc3-c3ccccc3)CC2C1=O (stereo not shown) [R/S‐WM447 (28), 7a‐(2,5‐difluorophenyl)‐2‐imino‐3‐methyl‐6‐(4‐phenyl‐1H‐pyrazol‐3‐yl)hexahydro‐1H‐pyrrolo[3,4‐d]pyrimidin‐4(4aH)‐one] | 683 nM | 2170 nM | 64 nM | 1530 nM | – | – | – | – | – | – | – |
| Cc1c(NC(=O)c2cccc(C#N)c2)cccc1[C@]1(C)CC(=O)N([C@H]2CCO[C@@H](C)C2)C(=N)N1 [UCB7362 (4)] | – | – | – | – | 142 nM | 7 nM | 10 nM | – | – | – | – |
| CN1C(=N)NC2(c3cc(F)ccc3F)CN(c3ncccc3-c3cccs3)CC2C1=O (stereo not shown) [Compound 24] | 1230 nM | 1200 nM | 67 nM | 1770 nM | – | – | – | – | – | – | – |
| CN1C(=N)NC2(c3cc(F)ccc3F)CN(c3ncccc3-c3ccc(Cl)cc3)CC2C1=O (stereo not shown) [R/S‐WM48 (14), 6‐(3‐(4‐chlorophenyl)pyridin‐2‐yl)‐7a‐(2,5‐difluorophenyl)‐2‐imino‐3‐methylhexahydro‐1H‐pyrrolo[3,4‐d]pyrimidin‐4(4aH)‐one] | 357 nM | 1080 nM | 343 nM | > 10000 nM | – | – | – | – | – | – | – |
| CN1C(=N)NC2(c3cc(F)ccc3F)CN(c3ncccc3-c3ccccc3C(F)(F)F)CC2C1=O (stereo not shown) [Compound 10] | 3450 nM | 3970 nM | 1280 nM | > 10000 nM | – | – | – | – | – | – | – |
| COc1ccc(-c2cccnc2N2CC3C(=O)N(C)C(=N)NC3(c3cc(F)ccc3F)C2)cc1 (stereo not shown) [Compound 15] | 3600 nM | 2000 nM | 473 nM | > 10000 nM | – | – | – | – | – | – | – |
| CN1C(=N)NC2(c3cc(F)ccc3F)CN(c3ncccc3-c3ccccc3F)CC2C1=O (stereo not shown) [Compound 7] | 1020 nM | 4530 nM | 1330 nM | > 10000 nM | – | – | – | – | – | – | – |
| CCC1(CC)CC(=O)N([C@@H]2CCOc3ccc(C(=O)N[C@H]4CC(C)(C)Oc5ccccc54)cc32)C(=N)N1 [WM382 (5)] | – | – | – | – | 0.4 nM | 0.04 nM | 0.6 nM | > 1000 nM | – | – | – |
| Cc1ccccc1-c1cccnc1N1CC2C(=O)N(C)C(=N)NC2(c2cc(F)ccc2F)C1 (stereo not shown) [Compound 9] | 610 nM | 5500 nM | 2070 nM | > 10000 nM | – | – | – | – | – | – | – |
| COc1ccccc1-c1cccnc1N1CC2C(=O)N(C)C(=N)NC2(c2cc(F)ccc2F)C1 (stereo not shown) [Compound 11] | 303 nM | > 10000 nM | 7500 nM | > 10000 nM | – | – | – | – | 2.5 fold | – | – |
| CN1C(=N)NC2(c3cc(F)ccc3F)CN(c3ncccc3-c3ccc(F)cc3Cl)CC2C1=O (stereo not shown) [Compound 21] | 967 nM | 3230 nM | 990 nM | > 10000 nM | – | – | – | – | – | – | – |
| CN1C(=N)NC2(c3cc(F)ccc3F)CN(c3ncccc3-c3sccc3Cl)CC2C1=O (stereo not shown) [R/S‐WM396 (25)] | 1110 nM | 350 nM | 9 nM | 200 nM | – | – | – | – | – | 8 × | – |
| CN1C(=N)NC2(c3cc(F)ccc3F)CN(c3nn(C)cc3-c3ccccc3)CC2C1=O (stereo not shown) [Compound 29] | 1050 nM | 10400 nM | 3470 nM | > 10000 nM | – | – | – | – | – | – | – |
| CN1C(=N)NC2(c3cc(F)ccc3F)CN(c3ncccc3-c3ccccc3Cl)CC2C1=O (stereo not shown) [R/S‐WM36 (8)] | 807 nM | 4870 nM | 1100 nM | > 10000 nM | – | – | – | – | – | – | did not inhibit |
| CN1C(=N)NC2(c3cc(F)ccc3F)CN(c3ncccc3-c3ccc(Cl)s3)CC2C1=O (stereo not shown) [Compound 26] | 610 nM | – | 70 nM | 2500 nM | – | – | – | – | – | – | – |
| CN1C(=N)NC2(c3cc(F)ccc3F)CN(c3ncccc3-c3ccc(Cl)cc3Cl)CC2C1=O (stereo not shown) [Compound 17] | 517 nM | 360 nM | 1070 nM | > 10000 nM | – | – | – | – | – | – | – |
| CN1C(=N)NC2(c3cc(F)ccc3F)CN(c3ncccc3-c3ccc(Cl)c(Cl)c3)CC2C1=O (stereo not shown) [Compound 19] | > 3700 nM | 434 nM | 187 nM | > 10000 nM | – | – | – | – | – | – | – |
| CN1C(=N)NC2(c3cc(F)ccc3F)CN(c3ncccc3-c3cccc(Cl)c3)CC2C1=O (stereo not shown) [Compound 12] | > 3700 nM | 390 to 1170 nM and 560 nM | 390 to 1170 nM and 390 nM | > 10000 nM | – | – | – | – | – | – | – |
| C[C@@H](NC[C@@H](O)[C@H](Cc1ccccc1)NC(=O)c1ccc(C(=O)N2CCN(C)CC2)cc1)c1ccccc1 [49c (3)] | – | – | – | – | 650 nM | 1.4 nM | 0.6 nM | > 1000 nM | – | – | – |
| CN1C(=N)NC2(c3cc(F)ccc3F)CN(c3ncccc3-c3ccccc3)CC2C1=O (stereo not shown) [Compound 6] | 440 nM | 3000 nM | 1070 nM | > 10000 nM | – | – | – | – | – | – | – |
| Cc1ccc(-c2cccnc2N2CC3C(=O)N(C)C(=N)NC3(c3cc(F)ccc3F)C2)c(Cl)c1 (stereo not shown) [Compound 22] | 690 nM | 1630 nM | 420 nM | > 10000 nM | – | – | – | – | – | – | – |
| CN1C(=N)NC2(c3cc(F)ccc3F)CN(c3ncccc3-c3ccc(Cl)cc3F)CC2C1=O (stereo not shown) [Compound 16] | 780 nM | 417 nM | 1330 nM | > 10000 nM | – | – | – | – | – | – | – |
| COc1cccc(-c2cccnc2N2CC3C(=O)N(C)C(=N)NC3(c3cc(F)ccc3F)C2)c1 (stereo not shown) [Compound 13] | 1500 nM | 390 to 1170 nM and 1170 nM | 390 to 1170 nM and 473 nM | > 10000 nM | – | – | – | – | – | – | – |
| CN1C(=N)NC2(c3cc(F)ccc3F)CN(c3ncsc3-c3ccccc3)CC2C1=O (stereo not shown) [Compound 27] | 440 nM | 990 nM | 473 nM | > 10000 nM | – | – | – | – | – | – | – |
| COc1ccc(-c2cccnc2N2CC3C(=O)N(C)C(=N)NC3(c3cc(F)ccc3F)C2)c(Cl)c1 (stereo not shown) [Compound 23] | 3170 nM | 1630 nM | 420 nM | > 10000 nM | – | – | – | – | – | – | – |
